In this assay the test system is CEM cells HIV-1 protection, formazan growth assay. In words: NCI AIDS Antiviral Assay. As to conditions: for IC50: measured here: growth of uninfected CEM cells. In short, it runs like this: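 Category rules: moderately active means at least 50% protection on retest, and confirmed active means 100% protection reproducibly. The underlying data came from a formazan growth assay in HIV-1-infected CEM cells.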

Molecules are shown by their SMILES. Where “and” joins values, the source holds several entries; their conditions need not be identical. Equal values may be shown once. Calls of active or inactive are those of the source.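 How the source made its calls: active means compounds giving half or more protection of infected cells from virus-caused growth loss, again on retest; inactive means the rest.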 Where a SMILES comes first, the peptide text is derived from it. The star is where a group is joined. Boc = CC(C)(C)OC(=O)*; OtBu = CC(C)(C)O*

Data on 30 compounds can be found in PubChem BioAssay AID179 (DTP/NCI, 2004).

Broadly, the EC50 is the concentration giving half of the maximal effect. The IC50 is the concentration at which inhibition is half-maximal. Read a high IC50 as lower potency. As for `COc1cc(-c2nn3c(C)c(-c4ccccc4)nc3s2)cc(OC)c1OC`, the EC50 was 178 µM and the IC50 was more than 200 µM. As for `O=S1(=O)c2ccccc2N(c2ccccc2)C2=NCCN21`, the EC50 was more than 120 µM and the half-inhibitory concentration (IC50) was more than 120 µM. As for `CON(C(=O)OC(C)(C)C)c1ccccc1`, the EC50 was 61.7 µM and the IC50 was more than 200 µM. As for `CC(C)(C)OC(=O)CC(NC(=O)OC(C)(C)C)C(=O)NC(Cc1ccccc1)C(N)=O` (stereo not given) (Boc-Asp(OtBu)-Phe-NH2; configuration not given here), the EC50 was 162 µM and the IC50 is more than 200 µM. Turning to `O=C(O)C[C@@H](Cl)[C@H](NC(=O)OCc1ccccc1)C(=O)O`, the outcome was inactive. Still for that read-out and setting: as for `N#CC(C#N)=C1NN=C(Cl)c2ccccc21`, the entry is “inactive”.

Take `COc1ccc(P2(=S)OC(C)(C)C(C)(C)O2)cc1`: the EC50 is more than 200 µM and the IC50 was more than 200 µM. For `FC(F)(F)c1cc(Cl)c2ccc3ccccc3c2n1`, the outcome was inactive and the IC50 is 12.6 µM. For the compound `CC(C)C(O)(C(=O)OCN1C(=O)C2C3C=CC(C2C1=O)C1C2C(=O)N(COC(=O)C(O)(C(C)C)C(C)O)C(=O)C2C31)C(C)O` (stereo not given), the EC50 was more than 200 µM and the IC50 is more than 200 µM. Consider `CC1(C)COC(c2cccc(C3=NC(C)(C)CO3)c2Br)=N1`, for which the EC50 is more than 200 µM and the IC50 stood at 151 µM.

Regarding `CC(/C=C/C(=O)c1sc(C(N)=S)nc1C)=C\c1ccccc1`, the EC50 was more than 79.4 µM and the IC50 was more than 79.4 µM. Turning to `O=C(O)c1ccccc1-c1c2cc(Br)c(=O)c(Br)c-2oc2c(Br)c(O)c(Br)cc12`, the EC50 was more than 200 µM; the IC50 was 21.9 µM and 35.5 µM.

Regarding `NC(=S)N1N=C2CCCCCC[C@@H]2[C@H]1c1ccccc1`, the result was inactive. Consider `O=C1/C(=C\c2ccc(Cl)cc2Cl)Sc2scc(-c3ccc(O)c(O)c3)[n+]21`, for which the EC50 is more than 200 µM and the IC50 is 6.31 µM.

Turning to `CCOC(=O)/C=C/CC(C)(C)COC(C)=O`, the outcome was inactive. In the case of `O=C(/C=C/c1cccc(F)c1)c1ccccc1`, the EC50 was more than 31.6 µM and the IC50 is 19.1 µM. For the compound `CC(C)c1ccc(/C=C2\CSCC3=C2N=C2SCC(=O)N2C3c2ccc(C(C)C)cc2)cc1` (stereo not given), the EC50 is more than 200 µM and the IC50 is 107 µM.

For the compound `Cc1cc(C(C)(C)C)oc(=O)c1NC(=O)c1ccccc1`, the EC50 is more than 200 µM and the IC50 stood at 155 µM. Turning to `CNC(=O)Oc1c(Cl)cccc1SSc1cccc(Cl)c1OC(=O)NC`, the EC50 is more than 200 µM and the IC50 is 19.5 µM.

`O[C@]12C=C[C@H](CCCC1)O2`: the EC50 is more than 200 µM and the IC50 was determined as 50.1 µM. As for `CC(=O)N/C(=C\C=C\CC=O)SC12CC3CC(CC(C3)C1)C2`, the EC50 is more than 200 µM and the IC50 worked out at 12.6 µM. For `CCN(CC)C(=S)N/N=C/c1cc([N+](=O)[O-])ccc1O`, in that order: more than 200 µM and 3.63 µM. For `CC(C)CC(=O)NC(NC(C)C)(C(F)(F)F)C(F)(F)F`, in that order: more than 200 µM and more than 200 µM.

`CN=c1c2c(c3[nH]c4ccccc4c4cnc1c34)NCCC2=O`: the EC50 is more than 200 µM and the IC50 is 1.41 µM. `O=C1NC(O)CCN1C1OC(CO)C(O)C1O` (stereo not given): the EC50 was more than 200 µM and the IC50 is more than 200 µM.

On to `COc1cc2ccc3c4cc(OC)c(OC(C)C)cc4cnc3c2cc1OC`, for which the result was inactive. Regarding `CN(C)CC(/C(Cc1ccccc1)=N\NC(=O)c1ccncc1)c1ccccc1` (stereo not given), the EC50 was more than 245 µM and the IC50 is 93.3 µM. For `CCOC(=O)c1c2c3c(cccc3[nH]c1=O)Sc1ncccc1-2` the same measures were more than 200 µM and 15.8 µM.

Take `N#Cc1c(-c2ccc(F)cc2)c(-c2ccc(F)cc2)nn(CCO)c1=O`: the EC50 is more than 141 µM and the IC50 was determined as 1.48 µM. With `N#CC1=C(N)N(/N=C/c2ccco2)C(c2ccco2)C1(C#N)C#N` (stereo not given), the EC50 is more than 200 µM and the IC50 was found to be 7.94 µM.
